Measurements taken from patent publication US4665064A, “Pharmaceutical compositions and methods for increasing zinc levels” (National Research Development Corporation, priority 1983, dated 1987).
Read-outs that look alike come from different tables or passages of the source. Blank lines part the entries; values can stand above or below the compound they belong to.

How the values were obtained:
physchem = assay type: physicochemical; conditions: for Kpart compared with maltol (compound and its 2:1 zinc complex): in words
Protocol: A good indication of the physical properties of a ligand-providing compound and of an zinc complex in this respect is provided by the value of the partition coefficient (Kpart)obtained on partition between n-octanol and Tris hydrochloride (20 mM, pH 7.4; Tris representing 2-amino-2 hydroxymethylpropane 1,3-diol) at 20° C. and expressed as the ratio (concentration in organic phase)/(concentration in aqueous phase). Preferred complexes show a value of Kpart for each ligand-providing compound of above 0.02 or 0.05 but less than 3.0, especially of above 0.2 but less than 1.0, together with a value of Kpart for the 2:1 zinc(II) complex of above 0.02 but less than 6.0, especially of 0.05 or 0.1 to 1.0. The value of Kpart for maltol is 0.66 and for the neutral 2:1 maltol:zinc complex is 0.11 which values lie in the especially preferred ranges. It will be appreciated, however, that the wide range of ligands which may be present in zinc complexes according to the present invention allows the preparation of complexes having partition coefficients lying throughout the entire ranges given. Thus, for example, a 2:1 complex having a higher partition coefficient than 0.1 may be obtained by using maltol as one ligand and another compound as the second ligand. Alternatively, higher partition coefficients may be obtained, if desired, by the use of hydroxypyrone compounds containing additional and/or larger aliphatic hydrocarbon group substituents on the ring.
Partition data on zinc complexes and on ligand-providing compounds
The partition coefficient Kpart, being the ratio (concentration in n-octanol)/(concentration in aqueous phase) on partition between n-octanol and aqueous tris hydrochloride (20 mM, pH 7.4; Tris represents 2-amino-2-hydroxymethylpropane 1,3-diol), is measured at 20° C. for zinc complexes containing various ligands and for their corresponding ligand-providing compounds as listed in Table 1. In the case of certain of the complexes the partition coefficient for the 2:1 ligand:zinc(II) complex is also measured in the presence of various amounts of the metal-free ligand-providing compound in excess of a b 1:2 zinc(II):compound ratio.
In each case, the material is dissolved initially in the aqueous Tris hydrochloride at a concentration of 10^-4 M in relation to zinc. The zinc complexes radiolabelled with ^65 Zn are prepared in situ in the buffer by the addition of ^65 Zn labelled ZnCl2 to an appropriate amount of the metal-free ligand-providing compound and subsequent adjustment of the pH to 7.4 by the addition of Tris free base. Acid washed glassware is used throughout and, following mixing of 5 ml of the 10^-4 M aqueous solution with 5 ml of n-octanol for 1 minute, the aqueous n-octanol mixture is centrifuged at 1,000 g for 30 seconds. […]

inverted rat jejunal sac = assay type: in vitro ADME, rat (male Sprague Dawley); conditions: 37° C., up to 1 hour, Krebs Ringer buffer
Description: In the case of the hydroxypyrone ligands it will be seen that the uptake again increases with the increase in the amount of free compound which is present as a result of an increase in the amount of the 2:1 complex which is present.

[1] = recognised property; in words; cited from earlier work
human erythrocytes = assay type: in vitro ADME; conditions: not told
Protocol: The zinc complex was formed in situ in the buffered solution using ^65 Zn labelled ZnSO4 at a concentration of 0.25 mM together with maltol or ethylpyromeconic acid in a molar ratio of zinc:compound of 1:0, 1:2, 1:5, 1:10 or 1:20, i.e. the concentration of the ligand-providing compound being 0, 0.5, 1.25, 2.5 or 5 mM, respectively. The proportions of 1:2, 1:5, 1:10 and 1:20 provide an increasing amount of the neutral 2:1 zinc(II) complex together with varying amounts of the free compound as explained in Example 4, a small amount of Tris free base (to about 2 mM) being added to avoid an acid pH on reaction to form the complex.
It will be seen that the uptake increases with an increase in the amount of free compound present as the proportion of zinc present as the 2:1 ligand:zinc(II) complex is increased through the mass action effect.

[2] = in words
apotransferrin = test: Ability of zinc complexes to donate zinc to apotransferrin; assay type: biochemical; conditions: apotransferrin 10^-4 M, ZnSO4 10^-4 M with 10 molar proportion of maltol, pH 7.4, 37° C., 10 minutes
Protocol: Apotransferrin (10^-4 M) and the ^65 Zn radiolabelled zinc complex of maltol (the complex being prepared in situ in the buffer using ^65 Zn radiolabelled ZnSO4 at a concentration of 10^-4 M and a 10 molar proportion of maltol) were incubated together in Tris hydrochloride (50 mM, buffered to pH 7.4) at 37° C. for 10 minutes when a 1 ml aliquot was removed from the medium and added to a PD10 column. 0.5 ml fractions were collected directly into scintillation vials for counting.

SMILES: CCc1occc(=O)c1O [ethylpyromeconic acid, 2-ethyl-3-hydroxy-4-pyrone, reference compound]
Kpart compared with maltol (compound and its 2:1 zinc complex) (physchem): higher than those for maltol | logD (physchem; n-octanol/tris buffer, pH 7.4): -0.125

SMILES: CCn1cccc(O)c1=O.[Zn] [zinc 1-ethyl-3-hydroxypyrid-2-one]
Uptake of zinc into serosal compartment of rat jejunal sac (inverted rat jejunal sac; Zinc:compound 1:2): 36.4 n. mole | Uptake of zinc into serosal compartment of rat jejunal sac (inverted rat jejunal sac; Zinc:compound 1:10): 24.2 n. mole

SMILES: CC(=O)[O-].CC(=O)[O-].[Zn+2] [zinc acetate]
emetic property [1]: recognised emetics

SMILES: O=S(=O)([O-])[O-].[Zn+2] [zinc sulphate]
emetic property [1]: recognised emetics

More lines, main results first:

Free compound Kpart (physchem; free ligand-providing compound, n-octanol/Tris hydrochloride 20 mM pH 7.4, 20° C.): 0.66
SMILES: Cc1occc(=O)c1O [maltol, 3-hydroxy-2-methyl-4-pyrone, reference compound]

uptake of the 2:1 complex in tests on the permeation of erythrocytes (human erythrocytes): greater uptake | Kpart compared with maltol (compound and its 2:1 zinc complex) (physchem): higher than those for maltol
SMILES: CCc1occc(=O)c1[O-].CCc1occc(=O)c1[O-].[Zn+2] [zinc ethylpyromeconic acid]

inhibition of the uptake of zinc (everted rat jejunum): no inhibition on the uptake of zinc | lability [2]: extremely labile
SMILES: Cc1occc(=O)c1O.[Zn] [zinc maltol]
zinc removed from the zinc complex (apotransferrin): over 95%

permeation (everted rat jejunum): little permeation occurs
SMILES: [Zn+2] [zinc]
non-specific binding to the mucosal surface (everted rat jejunum): rapidly removed from the incubation medium by binding to the mucosal surface
